Experimental data as given in paper PMC9970268 (Cancer Research Communications, 2022).

Columns and labels:
[1] = tested on: Rac, Cdc42, RhoA, PAK, and p-PAK; experiment: Western blot of tumor lysates from treated mice; format: in vivo, SCID mice; details: GFP-HER2-BM tumors, 5 mg/kg BW, 53 days
Text: Treatments continued until sacrifice at day 53.
Total cell lysates or pulldowns were Western blotted using routine procedures. The primary antibodies used were anti-Rac (Cell Signaling Technology), anti-Cdc42 (Abcam), anti-PAK1+PAK2+PAK3 (Cell Signaling Technology), anti-pPAK1 (T423)/PAK2 (T402; Abcam), anti-PAK1 + PAK2 + PAK3 (phospho T423; Abcam), Rac1B, and β-actin (Millipore-Sigma).

MDA-MB-231 cells = experiment: Wound healing assay; format: cell-based, human; details: 250 nmol/L; 12 and 24 hours
Experimental: MDA-MB-231 cells were plated on 12-well plates at equal cell density until confluent. Then the media was changed to 1% FBS, and a single scratch was made in the center of the monolayer culture with a pipet tip. Compounds were added immediately at 250 or 500 nmol/L and images were digitally acquired from a Keyence microscope (10×) at 0, 12, and 24 hours. The scratch area was quantified in ImageJ using the Macro Wound Healing Tool (http://dev.mri.cnrs.fr/projects/imagej-macros/wiki/Wound_Healing_Tool; n = 3 biologic replicates: with three technical replicates each).

Rho = Rho activation assay (Rho.GTP-binding domain of Rhotekin); format: cell-based, human; details: 250 nmol/L
Text: Cells were lysed and equal amounts of proteins were subjected to pulldown assays using the p21-binding domain of PAK to isolate the GTP bound Rac1 or Cdc42. […] Top, Pulldown showing GTP bound Rac1; Middle, Total Rac1 in lysates; Bottom, Actin as a loading control. B, Right, Results from positive bands in Western blots quantified using ImageJ. […] Top band, Rac1B.GTP from the pulldown; Middle band, Total Rac1B from cell lysates; Bottom band, Actin (N = 3). […] Top, Pulldown showing GTP bound Cdc42; Middle, Total Cdc42 in lysates; Bottom, Actin as a loading control. E, Right, Results from positive bands in Western blots quantified using ImageJ. […] (n = 3–4; *, P < 0.05; **, P < 0.01; ns, not significant). Error bars represent SEM. […] Rho activation assay was done using the Rho.GTP-binding domain of Rhotekin. […] Cells were lysed and Western blotted for total and active PAK. Left, Top, Cell lysates probed with an anti PAK1/2/3 antibody; second, Western blot analysis with anti phospho (p)-PAK (1/2/3)^Ser141,144,154; third, Western blot analysis with p-PAK (1/2/3)^Thr423; fourth, Anti actin. H, Fold change in p-PAK/PAK for PAK 1/3 (68 kD) for total p-PAK^Ser141,144,154 and p-PAK^Thr423. (n = 3; **, P < 0.01; ***, P < 0.001; ns, not significant). […] Tumor lysates were Western blotted with antibodies specific for Rac1, Cdc42, PAK1/2/3, p-PAK (1/2/3)^Ser141,144,154, or p-PAK^Thr423. […]

CYP3A4 = biological target: T1, CYP3A4 (Homo sapiens, UniProt P08684); experiment: CyP450 enzyme assay (P450-Glo); format: in vitro ADME; details: for IC50: recombinant human CYP enzyme, 0.001–100 μmol/L
T1 construct: purchased Promega
T1 sequence (P08684 whole entry): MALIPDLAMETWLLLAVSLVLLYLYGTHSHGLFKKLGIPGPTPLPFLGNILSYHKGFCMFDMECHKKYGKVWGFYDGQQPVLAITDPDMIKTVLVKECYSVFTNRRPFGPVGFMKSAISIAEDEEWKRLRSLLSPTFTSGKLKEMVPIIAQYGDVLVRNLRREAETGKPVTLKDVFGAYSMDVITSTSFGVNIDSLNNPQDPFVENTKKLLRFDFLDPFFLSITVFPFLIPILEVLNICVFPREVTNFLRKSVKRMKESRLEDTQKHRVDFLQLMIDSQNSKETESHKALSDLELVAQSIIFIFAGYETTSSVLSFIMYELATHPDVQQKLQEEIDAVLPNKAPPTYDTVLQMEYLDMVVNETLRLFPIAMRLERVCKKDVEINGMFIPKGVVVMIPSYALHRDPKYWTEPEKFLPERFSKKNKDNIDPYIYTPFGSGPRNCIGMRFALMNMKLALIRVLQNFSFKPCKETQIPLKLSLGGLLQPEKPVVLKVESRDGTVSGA
Experimental: (§1) The assay was carried out using P450-Glo Screening System (Promega). The system contained recombinant human CYP enzyme and P450 reductase (and cytochrome b5 for CYP2C9, 2C19, and 3A4), luminogenic substrates appropriate for each CYP enzyme, a NADPH regeneration system (containing NADP+), and luciferin detection reagent. […] These compounds and organic solvents acetonitrile, and DMSO were purchased from Sigma-Aldrich.
(§2) First, 12.5 μL of the 4X stock solution of test compounds or positive controls (appropriate for each enzyme) were added to the “treated” wells. For the “untreated” (the values from these wells represent total CYP activity) and “minus-P450 control” wells (the values from these wells represent the CYP-independent background luminescence of the assay), 12.5 μL of vehicle was added. Then, 12.5 μL of the 4X control reaction mixture (containing membrane preparations devoid of CYP enzymes, the appropriate luminogenic substrate, and potassium phosphate buffer) were added to the minus-P450 control wells, and 12.5 μL of the 4X reaction mixture (containing human CYP membrane preparations, the appropriate luminogenic substrate, and potassium phosphate buffer) were added to all other wells. The plates were preincubated at room temperature for 10 minutes with the reaction mixture (membrane with enzyme, substrate, and 1 mol/L potassium phosphate buffer), and then 2X NADPH regeneration system was added to initiate the reaction. After incubation at room temperature for 30 minutes, 50 μL of the Luciferin Detection Reagent was added to stop the reaction and generate the luminescent signal. Before reading, the plate was incubated at room temperature for 20 minutes to stabilize the luminescent signal. The luminescence was measured using an Infinite F200 plate reader (Tecan). […] The percentage of CYP enzyme activity versus log concentration of test compounds were plotted to calculate the IC50 values.

CYP2C19 = biological target: T2, CYP2C19 (Homo sapiens, UniProt P33261); experiment: CyP450 enzyme assay (P450-Glo); format: in vitro ADME
T2 construct: purchased Promega
T2 sequence (P33261 whole entry): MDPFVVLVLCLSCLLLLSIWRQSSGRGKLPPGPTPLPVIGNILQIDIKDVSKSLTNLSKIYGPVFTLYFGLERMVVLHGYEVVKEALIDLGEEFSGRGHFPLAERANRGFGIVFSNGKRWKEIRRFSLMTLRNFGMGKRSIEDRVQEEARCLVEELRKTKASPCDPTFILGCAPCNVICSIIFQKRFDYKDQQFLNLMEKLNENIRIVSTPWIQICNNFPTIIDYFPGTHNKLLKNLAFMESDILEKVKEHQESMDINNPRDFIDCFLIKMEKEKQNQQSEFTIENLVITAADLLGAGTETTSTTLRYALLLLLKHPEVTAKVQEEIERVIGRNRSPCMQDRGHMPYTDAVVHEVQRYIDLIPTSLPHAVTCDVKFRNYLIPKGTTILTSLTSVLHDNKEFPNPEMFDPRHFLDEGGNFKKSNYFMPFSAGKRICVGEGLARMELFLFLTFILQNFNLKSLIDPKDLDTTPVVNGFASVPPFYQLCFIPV
Experimental: as §1, §2

CYP2C9 = biological target: T3, CYP2C9 (Homo sapiens, UniProt P11712); experiment: CyP450 enzyme assay (P450-Glo); format: in vitro ADME; details: recombinant human CYP enzyme, 0.001–100 μmol/L
T3 construct: purchased Promega
T3 sequence (P11712 whole entry): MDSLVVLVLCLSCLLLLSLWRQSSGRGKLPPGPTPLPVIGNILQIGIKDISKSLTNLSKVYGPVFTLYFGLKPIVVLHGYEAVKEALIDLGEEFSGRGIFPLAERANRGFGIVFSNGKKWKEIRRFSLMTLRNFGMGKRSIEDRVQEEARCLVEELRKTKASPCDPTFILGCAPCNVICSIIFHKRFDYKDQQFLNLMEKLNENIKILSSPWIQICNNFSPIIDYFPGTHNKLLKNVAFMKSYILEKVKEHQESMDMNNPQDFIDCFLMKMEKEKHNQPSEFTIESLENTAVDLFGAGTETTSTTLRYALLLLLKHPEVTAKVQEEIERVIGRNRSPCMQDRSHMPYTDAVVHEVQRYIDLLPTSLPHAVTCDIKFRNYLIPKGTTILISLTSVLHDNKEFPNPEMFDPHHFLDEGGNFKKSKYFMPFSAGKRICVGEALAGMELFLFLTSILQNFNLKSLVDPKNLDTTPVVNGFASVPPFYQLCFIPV
Experimental: as §1, §2

MCF7 breast cancer cells = experiment: Cell viability (MTT) assay; format: cell-based, human; details: 250 nmol/L, 120 hr
Experimental: (§3) Using CellTiter 96 Non-Radioactive Cell Proliferation Assay (Promega, Corp.) according to manufactures’ instructions, formazan was used as an indicator of viable cells at an absorbance 570 nm in a Tecan Microplate Reader M100 (Tecan). Data were calculated as fold change from vehicle and transformed to logarithm base 10. 0 concentration was replaced with 1 nmol/L to fit using the 4-parameter logic nonlinear regression model in GraphPad Prism software. (n = 3 biologic replicates: with three technical replicates each).
Supplementary Figure S1. Percentage cell viability of MDA-MB-231, GFP-HER2-BM, […]
nM for 120 hr. The bar graphs are presented as individual fold change data points from vehicle and grouped mean ± SEM. (n = 3; *, P < 0.05; ** P < 0.01).
(1 picture or pasted object on this page, not shown here)

HMEC cells = experiment: Cell viability (MTT) assay; format: cell-based, human; details: 120 hours, 0 to 1,000 nmol/L
Experimental: as §3

Row | SMILES | Cdc42 and RhoA levels [1] | reduction of Thr 423 phosphorylation in PAKs 1, 2, 3 compared with vehicle [1] | reduction of p-Serine 141,144,154 levels in PAK1, 2, and 3 [1] | total Rac, and PAK1/2/3 levels [1] | wound closure (MDA-MB-231 cells) | Rho activation (Rho) | IC50 (CYP3A4) [nM] | IC50 (CYP2C19; recombinant human CYP enzyme, 0.001–100 μmol/L) [nM] | IC50 (CYP2C9) [nM] | inhibition of cell viability (MCF7 breast cancer cells) [%] | effect on viability of HMECs (HMEC cells) | potency at inhibiting CYP3A4, times less potent than MBQ-167 (CYP3A4) | CYP2C19 IC50, fold lower than the IC50 for the positive control (CYP2C19) | IC50 at 30 min (CYP2C19; human, recombinant human CYP enzyme, 0.001–100 μmol/L) [nM]
1 | CCn1c2ccccc2c2cc(-n3nncc3-c3ccccc3)ccc21 [MBQ-167] | remain unaffected | approximately 50% | did not show changes | Decreases were observed | wound area was maintained at 12 and 24 hours | do not affect | 280 | 455 | 890 | 40 | did not affect the viability of HMECs | – | – | –
2 | CCn1c2ccccc2c2cc(-n3nncc3-c3cccc(OC)c3)ccc21 [MBQ-168] | remain unaffected | approximately 50% | approximately 75% | Decreases were observed | wound area was maintained at 12 and 24 hours | do not affect | 3180 | – | 670 | 40 | did not affect the viability of HMECs | approximately 10 X | approximately 6 fold | 523
